Experimental data reported in patent US10561638B2, “Methods for treating dependence” (Biotie Therapies, Inc., priority 2007, dated 2020).
Entries after “also recorded” stand apart in the source; their conditions may differ.

How the values were obtained:
[1] = system: SHRs; experiment: 30-day radio-telemetry study in SHRs; conditions: for blood pressure: hydrochloride
[2] = system: left ventricular [3H] CGP-12177 binding sites; experiment: [3H] CGP-12177 saturation binding in left ventricle membranes of treated dogs; design: species or system beagle dogs; conditions: 10 mg/kg/day for 4.5 days
Protocol: Ventricles were homogenized in 50 mM Tris-HCl, 5 mM Na2EDTA buffer (pH 7.4 at 4° C.) using a Polytron P-10 tissue disrupter (setting 10, 2×15 second bursts). Homogenates were centrifuged at 500×g for 10 minutes and the supernatants stored on ice. The pellets were washed by resuspension and centrifugation at 500×g and the supernatants combined. The combined supernatants were centrifuged at 48,000×g for 20 minutes. The pellets were washed by resuspension and centrifugation once in homogenizing buffer and twice in 50 mM Tris-HCl, 0.5 mM EDTA buffer (pH 7.4 at 4° C.). Membranes were stored at −70° C. until required. Saturation experiments were conducted using [^3H] CGP-12177 in buffer containing 50 mM Tris-HCl, 0.5 mM EDTA (pH 7.4 at 32° C.). Non-specific binding was defined by 10 μM isoproterenol. Total bound, non-specific bound and total count tubes were set up for eight concentrations of [^3H] […] Aquasol scintillation fluid was added to each vial and radioactivity determined by liquid scintillation counting. Saturation binding isotherms were analyzed after first converting total ligand concentrations to free ligand concentrations (total−bound=free). […] Tissue catecholamine levels were analyzed by comparing nepicastat-treated groups with the placebo (control) treated groups. […] Additionally, a linear orthogonal contrast was calculated for all three doses within the context of a one-way ANOVA. […]

[3] = Safety and tolerability in squirrel monkeys; type: in vivo
Protocol: Six squirrel monkeys, three non-lesioned and three lesioned (received 2 mg/kg MPTP 3 months prior), were used to study safety and tolerability of nepicastat. Animals received nepicastat at a concentration of 0.5, 2.0, or 5.0 mg/kg twice daily, (10 am and 2 pm), for 5 days with a two-day washout between the different dose levels. Nepicastat was administered via oral syringe at the 0.5, 2.0 […] mg/kg doses and as oral gavage at the 5.0 mg/kg dose.

[4] = system: pithed SHRs; experiment: Pressor response to pre-ganglionic nerve stimulation in pithed SHRs; type: in vivo, spontaneously hypertensive rats
Protocol: The in vivo hemodynamic activity of nepicastat was further assessed in conscious, restrained SHRs, a model having high sympathetic drive to cardiovascular tissues. Hemodynamic study in SHRs. Male SHRs (15-16 week old) were used in the study. The animals were lightly anesthetized with ether and the left femoral artery and vein were catheterized for measurement of blood pressure and drug administration, respectively. The animals were placed in restrainers and allowed to recover for 30-40 min. After obtaining baseline measurements, the animals were treated, orally, with either vehicle or the appropriate dose of nepicastat and hemodynamic parameters were continuously recorded for 4 h. The animals were then anesthetized with pentobarbital, placed on a heating pad (37° C.) and ventilated with a Harvard rodent ventilator. After administration of atropine (1 mg/kg, iv) and tubocurarine (1 mg/kg, iv), the animals were pithed through the orbit of the eye with a stainless steel rod. The […] rod was stimulated electrically with 1 ms pulses of 80V at different frequencies (0.15, 0.45, 1.5, 5, 15 Hz) to obtain frequency-pressor response curves. […] The response was slow in onset, reaching its plateau in 3-4 h. […] Following this study, the rats were pithed and the effects of nepicastat on the pressor response to pre-ganglionic nerve stimulation (PNS) of the spinal cord were evaluated 5 h after dosing.

[5] = system: conscious, restrained SHRs; experiment: Hemodynamic study in conscious, restrained SHRs; type: in vivo, spontaneously hypertensive rats
Protocol: The in vivo hemodynamic activity of nepicastat was further assessed in conscious, restrained SHRs, a model having high sympathetic drive to cardiovascular tissues. Hemodynamic study in SHRs. Male SHRs (15-16 week old) were used in the study. The animals were lightly anesthetized with ether and the left femoral artery and vein were catheterized for measurement of blood pressure and drug administration, respectively. The animals were placed in restrainers and allowed to recover for 30-40 min. After obtaining baseline measurements, the animals were treated, orally, with either vehicle or the appropriate dose of nepicastat and hemodynamic parameters were continuously recorded for 4 h. The animals were then anesthetized with pentobarbital, placed on a heating pad (37° C.) and ventilated with a Harvard rodent ventilator. After administration of atropine (1 mg/kg, iv) and tubocurarine (1 mg/kg, iv), the animals were pithed through the orbit of the eye with a stainless steel rod. The […] rod was stimulated electrically with 1 ms pulses of 80V at different frequencies (0.15, 0.45, 1.5, 5, 15 Hz) to obtain frequency-pressor response curves. […] The animals were placed in restrainers and allowed to recover for 30-40 minutes. After obtaining baseline measurements, the animals were treated, orally, with either vehicle or the appropriate dose of nepicastat and hemodynamic parameters were continuously recorded for 4 h.

Q: For `Cl.NCc1c[nH]c(=S)n1[C@H]1CCc2c(F)cc(F)cc2C1` [nepicastat, (S)-5-Aminomethyl-1-(5,7-difluoro-1,2,3,4-tetrahydronaphth-2-yl)-2,3-dihydro-2-thioxo-1H-imidazole hydrochloride], which “peak decrease in mean blood pressure” value ([1]; 30 mg/kg/d, day 3) is on record?
A: −20 mmHg

Q: And the “peak antihypertensive response on day 1” value ([1]; 100 mg/kg, 21 hr after dosing)?
A: −29 mmHg

Q: What about the blood pressure ([1]; 3 and 10 mg/kg/d for 30 days) of the same molecule?
A: no significant effects; also recorded: did not significantly affect blood pressure

Q: And the “persistence of blood pressure effect after a single dose” value ([1]; 30 and 100 mg/kg/d)?
A: 24 h

Q: And the blood pressure ([1]; 30 and 100 mg/kg/d for 30 days)?
A: significantly lowered blood pressure; also recorded: significantly reduced blood pressure

Q: And the “antihypertensive effect of mono-administration” value ([1]; enalapril 1 mg/kg or nepicastat 30 mg/kg (Series III))?
A: only a small antihypertensive effect

Q: What about the “relation of deaths to treatment” value ([1]; four deaths in four series) of the same molecule?
A: appeared unrelated to the treatment of nepicastat

Q: What about the “cardiac hypertrophy / left ventricular mass” value ([1]; nepicastat 3-100 mg/kg) of the same molecule?
A: did not affect the cardiac hypertrophy

Q: What about the “left ventricular binding, treated vs vehicle group” value [2] of the same molecule?
A: no difference

Q: What about the “adverse finding in one non-lesioned monkey” value ([3]; 5.0 mg/kg twice daily, final two days) of the same molecule?
A: light beige colored loose stools

Q: What about the tolerability ([3]; 0.5 and 2.0 mg/kg twice daily, 5 days) of the same molecule?
A: well tolerated at the two lower doses

Q: And the “hypertensive and tachycardic responses to preganglionic nerve stimulation” value ([4]; 3 mg/kg p.o., 5 hours after dosing)?
A: significantly attenuated the hypertensive and tachycardic responses

Q: What about the “heart rate response to PNS” value ([4]; 5 h after dosing) of the same molecule?
A: not significantly affected

Q: What about the “maximum shift in the frequency-pressor response curve” value ([4]; 5 h after dosing) of the same molecule?
A: ~5 fold

Q: And the “decrease in heart rate” value ([5]; 10 mg/kg)?
A: 9.8%

Q: What about the “maximal decrease in mean blood pressure” value ([5]; 10 mg/kg po) of the same molecule?
A: 53±4 mmHg

Q: And the “reduction in mean blood pressure relative to vehicle control” value ([5]; 10 mg/kg po)?
A: 33%

Q: And the “decrease in blood pressure 4 hours after dosing” value ([5]; 10 mg/kg, SHRs)?
A: −46 mmHg

Q: What about the “decrease in heart rate” value ([5]; 30 mg/kg) of the same molecule?
A: 10.5%

Q: And the “effect on mean arterial pressure” value ([5]; 0.3-30 mg/kg po, up to 4 h, hydrochloride)?
A: significant (p<0.05) lowering of mean arterial pressure; also recorded: significant antihypertensive effect

Q: What about the “effect on heart rate” value ([5]; 10 and 30 mg/kg po) of the same molecule?
A: significantly reduced heart rate

Q: And the “duration of antihypertensive effects” value ([5]; acute oral administration)?
A: > 4 h

Q: And the “time to plateau of the antihypertensive response” value ([5]; po)?
A: 3 to 4 h
